Reference: BindingDB's records for PubMed 34214508 (Roche Innovation Center Shanghai, 2021)

Test: Inhibition of mouse TNF-alpha in mouse L929 cells incubated for 18 hrs by CellTitreGlo assay

An IC50 of 125 nM was found for `Cc1ccc(C)c(Cn2c(C(O)c3ccncc3)nc3ccc(-c4cnn(C)c4)cc32)c1` (stereo unspecified) in this work.
